Values after ≈ are worked out from the molar mass of the structure shown. Where a SMILES comes first, the peptide text is derived from it. Bridges are numbered along the chain shown (N, C = ends). [ ]: non-standard residue; d: D form. The star is where a group is joined. Val(Nα-amidino) = CC(C)[C@H](NC(=N)N)C(=O)*; Hyp = O=C(O)[C@@H]1C[C@@H](O)CN1; Pen = CC(C)(S)[C@H](N)C(=O)O; dDab = NCC[C@@H](N)C(=O)O; Dab = NCC[C@H](N)C(=O)O
What was measured:
in vitro = format: cell-based; conditions: human
Method: The cytotoxicity of compounds was determined by determining the number of viable cells using the Sigma Cell Counting Kit-8 (WST-8). HeLa cells were incubated at 37°C and 5% CO2 for 24 hours, after which the medium was replaced with fresh medium containing dilutions of compounds. […]

[1] = Tolerability (single day, IV bolus q12h); format: in vivo, CD-1 mice; conditions: for Tolerability (IV bolus, q12h): mice died: single day
Method: (§1) Two different study designs were used to determine the potential toxicity of these compounds, when given BID via intravenous bolus (injection) 12 hours apart to CD-1 mice. In the first type of study, male mice were dosed on a single day at three escalating dose levels (three mice per group), while the second type of study male mice (nine mice per group) were dosed for seven consecutive days with the same administration regimen (q12h). […] Detailed clinical observations were conducted up to at least 3 hours after the first daily dosing and up to at least 1 hour after the second daily dosing. In addition, the Irwin battery of tests was used to assess the mice neurobiological and physiological state during the single day study at 30, 60, 120, 180, and 240 min after the first administration. The following parameters were included in the observations: occurrence of abnormal gait, catalepsy, piloerection, abnormal respiration, increase or decrease in spontaneous activity, spontaneous activity following audible stimuli (tapping on side of cage), touch response, and body tonus. Any additional symptoms observed were also reported.

Serratia marcescens = conditions: CLSI microdilution method; LptA sequence identity 64
Method: (§2) MIC assays [Clinical and Laboratory Standards Institute (CLSI) methodology] and serial passage studies were performed as described by Luther et al. ([6]). […] Resistant mutants were isolated, and their MIC values were determined and sent to Microbes NG (Birmingham, United Kingdom) for whole-genome sequencing and bioinformatic analysis.

Enterobacter aerogenes = conditions: CLSI microdilution method; LptA sequence identity 88
Method: as §2

Enterobacter cloacae = conditions: CLSI microdilution method; LptA sequence identity 86
Method: as §2

Pantoea agglomerans = conditions: CLSI microdilution method; LptA sequence identity 69
Method: as §2

Shigella flexneri = conditions: CLSI microdilution method; LptA sequence identity 100
Method: as §2

Morganella morganii = conditions: CLSI microdilution method; LptA sequence identity 57
Method: as §2

Providencia stuartii = conditions: CLSI microdilution method; LptA sequence identity 55
Method: as §2

[2] = system: Stenotrophomonas maltophilia; conditions: CLSI microdilution method; LptA sequence identity 25
Method: as §2

Citrobacter freundii = conditions: CLSI microdilution method; LptA sequence identity 92
Method: as §2

Proteus mirabilis = conditions: CLSI microdilution method; LptA sequence identity 54
Method: as §2

Klebsiella oxytoca = conditions: CLSI microdilution method; LptA sequence identity 100
Method: as §2

Hafnia alvei = conditions: CLSI microdilution method; LptA sequence identity 72
Method: as §2

Klebsiella pneumoniae = conditions: CLSI microdilution method; LptA sequence identity 88
Method: as §2

Proteus vulgaris = conditions: CLSI microdilution method; LptA sequence identity 55
Method: as §2

[3] = system: Salmonella enterica subsp. enterica; conditions: CLSI microdilution method; LptA sequence identity 91
Method: as §2

Moraxella catarrhalis = conditions: CLSI microdilution method; LptA sequence identity 28
Method: as §2

Raoultella planticola = conditions: CLSI microdilution method; LptA sequence identity 84
Method: as §2

Providencia rettgeri = conditions: CLSI microdilution method; LptA sequence identity 54
Method: as §2

Escherichia coli = conditions: CLSI microdilution method; LptA sequence identity 100
Method: as §2

[4] = system: panel of 121 Enterobacteriaceae including CRE, MDR, and XDR isolates; assay: organism not typed; conditions: for MIC50 (n=121): CLSI microdilution method, 121 isolates
Method: as §2

[5] = 7-day repeated dosing (IV bolus q12h); format: in vivo, CD-1 mice; conditions: mice, intravenous BID 15 mg/kg per dose, seven consecutive days
Method: as §1

Plasma protein binding = format: in vitro ADME, mouse; conditions: mass balance method, ultrafiltration 30-kDa cutoff; pooled mouse plasma adjusted to pH 7.5; 10 mg/liter; 30 min at 37°C; biological replicates; read-out: Plasma protein binding (% bound) Mouse (converted)
Method: After ultrafiltration, protein binding was determined by subtracting the percentage of compound in ultrafiltrate from the total amount of compound in spiked plasma (table S4A).

LptAmQ62L = target: T1, LptAmQ62L (Escherichia coli, UniProt P0ADV1, Q62L); assay: biochemical; format: binding, E. coli
T1 construct: His6-GB1 (N, cleaved yes); made in house; host or cells: E. coli BL21 (DE3)
T1 sequence (P0ADV1 28-159 Q62L): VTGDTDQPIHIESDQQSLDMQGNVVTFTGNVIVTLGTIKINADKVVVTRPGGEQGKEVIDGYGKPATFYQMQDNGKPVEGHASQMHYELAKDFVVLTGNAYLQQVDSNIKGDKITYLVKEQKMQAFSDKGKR
Method: Protein stocks were purified and concentrated in buffer 1 [50 mM Na-Pi (pH 7) and 150 mM NaCl] and, if necessary, diluted to desired concentrations using buffer 2 [50 mM Na-Pi (pH 7), 150 mM NaCl, and 0.05% Tween 20]. Peptide stocks and fluorescently labeled peptide stocks were made in buffer 2. Every serial dilution consisted of 24 wells, the first well with the highest concentrate and the last well (well 24) with the lowest. First, 50 μl of buffer 2 was added to the wells 2 to 24 of each serial dilution. Then, 100 μl of concentrated unlabeled peptide/protein in their respective buffers was added to the first well. Fifty microliters were taken from the first well and added to the second well for a 1:1 serial dilution and continued for the 24 wells. […] Plates were covered with adhesive seals and left to incubate overnight at 4°C before FP measurements the next day. Anisotropy was measured using the Tecan Safire2 plate reader using a 10-nm bandwidth and setting the excitation and emission wavelengths to 635 and 670 nm, respectively. The G-factor (G) was also determined empirically as 1.094 for the instrument and included in all the anisotropy calculations.
For the indirect binding assays, r was calculated in the same manner as the direct binding assays. […] The control was subtracted from r to yield r′. Data were fit to a sigmoidal interpolation model on GraphPad Prism 9, and an IC50 was generated for each unlabeled peptide or protein measured.

Row | Compound | IC50 at 48 h (in vitro) | MIC Serratia marcescens (Serratia marcescens) | MIC Enterobacter aerogenes (Enterobacter aerogenes) | MIC Enterobacter cloacae (Enterobacter cloacae) | MIC Pantoea agglomerans (Pantoea agglomerans) | MIC Shigella flexneri (Shigella flexneri) | MIC Morganella morganii (Morganella morganii) | MIC Providencia stuartii (Providencia stuartii) | MIC Stenotrophomonas maltophilia [2] | MIC Citrobacter freundii (Citrobacter freundii) | MIC Proteus mirabilis (Proteus mirabilis) | MIC Klebsiella oxytoca (Klebsiella oxytoca) | MIC Hafnia alvei (Hafnia alvei) | MIC Klebsiella pneumoniae (Klebsiella pneumoniae) | MIC Proteus vulgaris (Proteus vulgaris) | MIC Salmonella enterica subsp. enterica [3] | MIC Moraxella catarrhalis (Moraxella catarrhalis) | MIC Raoultella planticola (Raoultella planticola) | MIC Providencia rettgeri (Providencia rettgeri) | MIC Escherichia coli (Escherichia coli) | other results
1 | CC[C@H](C)[C@H](NC(=O)[C@@H]1C[C@@H](O)CN1C(=O)[C@@H](N)C(C)C)C(=O)N[C@H](C(=O)N[C@@H](Cc1ccc(O)cc1)C(=O)N[C@@H]1C(=O)N[C@@H](CC(N)=O)C(=O)N[C@@H](CCCNC(=N)N)C(=O)N[C@@H](CCN)C(=O)N[C@@H]([C@@H](C)O)C(=O)N[C@H](CCN)C(=O)N[C@@H](CCCCN)C(=O)N[C@H](C(=O)N[C@@H](CCN)C(=O)N[C@@H](CCCNC(=N)N)C(=O)N[C@@H](Cc2ccc(O)cc2)C(=O)O)CSSC1(C)C)[C@@H](C)O [Compound 6] (H-V[Hyp]ITY[Pen]NR[Dab]T[dDab]KC[Dab]RY-OH; disulfide 6-13) | 1160 µM | > 8 µg/mL | 0.5 µg/mL (≈ 0.255 µM) | 0.13 µg/mL (≈ 0.0663 µM) | 4 µg/mL (≈ 2.04 µM) | 0.03 µg/mL (≈ 0.0153 µM) | > 8 µg/mL | > 8 µg/mL | > 8 µg/mL | 0.13 µg/mL (≈ 0.0663 µM) | > 8 µg/mL | 0.25 µg/mL (≈ 0.128 µM) | 2 µg/mL (≈ 1.02 µM) | 0.13 µg/mL (≈ 0.0663 µM) | > 8 µg/mL | 0.5 µg/mL (≈ 0.255 µM) | > 8 µg/mL | 0.06 µg/mL (≈ 0.0306 µM) | > 8 µg/mL | 0.03 µg/mL (≈ 0.0153 µM) | Tolerability (IV bolus, q12h): mice died ([1]; at 40 mg/kg/day q12h): 0/3; MIC50 (n=121) [4]: 0.25 µg/mL (≈ 0.128 µM); MIC90 ([4]; panel of 121 Enterobacteriaceae including CRE, MDR, and XDR isolates): 1 µg/mL (≈ 0.51 µM); Tolerability in repeat dose safety study [5]: well tolerated with no adverse events or detectable kidney toxicity; fraction unbound at 30 min, 10 mg/liter (Plasma protein binding): 0.11; IC50 (LptAmQ62L): 0.0146 ± 0.0025 µM; Ki (LptAmQ62L): 0.0099 ± 0.0017 µM
2 | CC[C@H](C)[C@H](NC(=O)[C@@H]1C[C@@H](O)CN1C(=O)[C@@H](NC(=N)N)C(C)C)C(=O)N[C@H](C(=O)N[C@@H](Cc1ccc(O)cc1)C(=O)N[C@@H]1C(=O)N[C@@H](CC(N)=O)C(=O)N[C@@H](CCCNC(=N)N)C(=O)N[C@@H](CCN)C(=O)N[C@@H]([C@@H](C)O)C(=O)N[C@H](CCN)C(=O)N[C@@H](CCCCN)C(=O)N[C@H](C(=O)N[C@@H](CCN)C(=O)N[C@@H](CCCNC(=N)N)C(=O)N[C@@H](Cc2ccc(O)cc2)C(=O)O)CSSC1(C)C)[C@@H](C)O [Compound 7] ({Val(Nα-amidino)}-[Hyp]ITY[Pen]NR[Dab]T[dDab]KC[Dab]RY-OH; disulfide 5-12) | 456 µM | > 8 µg/mL | 1 µg/mL (≈ 0.5 µM) | 0.5 µg/mL (≈ 0.25 µM) | > 8 µg/mL | 0.06 µg/mL (≈ 0.03 µM) | > 8 µg/mL | > 8 µg/mL | > 8 µg/mL | 0.5 µg/mL (≈ 0.25 µM) | > 8 µg/mL | 0.5 µg/mL (≈ 0.25 µM) | 4 µg/mL (≈ 2 µM) | 0.25 µg/mL (≈ 0.125 µM) | > 8 µg/mL | 1 µg/mL (≈ 0.5 µM) | > 8 µg/mL | 0.25 µg/mL (≈ 0.125 µM) | > 8 µg/mL | 0.06 µg/mL (≈ 0.03 µM) | Tolerability (IV bolus, q12h): mice died ([1]; at 30 mg/kg/day q12h): 0/3; Tolerated dose, intravenous BID ([1]; mice, intravenous, twice a day (q12h)): up to 30 mg/kg per day; MIC50 (n=121) [4]: 0.25 µg/mL (≈ 0.125 µM); Tolerability in repeat dose safety study [5]: well tolerated with no adverse events or detectable kidney toxicity; fraction unbound at 30 min, 10 mg/liter (Plasma protein binding): 0.06; IC50 (LptAmQ62L): 0.0254 ± 0.0046 µM; Ki (LptAmQ62L): 0.0172 ± 0.0031 µM

Reference: article PMC10208570, “Peptidomimetic antibiotics disrupt the lipopolysaccharide transport bridge of drug-resistant Enterobacteriaceae” (Science Advances, 2023)
